The values that follow come from patent publication US12331018B2, “Pyrrolidine orexin receptor agonists” (Merck Sharp & Dohme LLC, priority 2019, dated 2025).

The target in the test is T1, human OX2R (Homo sapiens, UniProt O43614).
T1 construct: expressed in transfected cells; host or cells: CHO (Chinese hamster ovary) cells, grown under G418 selection
T1 sequence (O43614 1-444): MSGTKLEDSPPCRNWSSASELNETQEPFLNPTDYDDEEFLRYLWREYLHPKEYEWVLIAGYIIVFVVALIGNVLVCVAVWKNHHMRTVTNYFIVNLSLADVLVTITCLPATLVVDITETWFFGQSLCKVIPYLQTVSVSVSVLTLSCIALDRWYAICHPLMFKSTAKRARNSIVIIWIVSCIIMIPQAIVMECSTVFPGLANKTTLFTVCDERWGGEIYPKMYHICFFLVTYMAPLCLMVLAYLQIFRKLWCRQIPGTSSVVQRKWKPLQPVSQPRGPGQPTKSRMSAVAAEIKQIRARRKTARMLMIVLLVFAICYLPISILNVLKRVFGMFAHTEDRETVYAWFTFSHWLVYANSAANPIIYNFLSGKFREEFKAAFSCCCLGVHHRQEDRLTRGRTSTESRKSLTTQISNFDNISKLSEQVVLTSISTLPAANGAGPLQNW
Description: IPOne (IP-1 accumulation) assay in CHO cells expressing human OX2R. It is filed as cell-based. Particulars: for Emax, % of reference agonist: OX2R, percentage of sample raw value/mean max effect (reference compound at 1 uM with 100% activity). An excerpt:
The utility of the compounds in accordance with the present invention as orexin receptor OX1R and/or OX2R agonists may be readily determined without undue experimentation by methodology well known in the art. Both the OX1R and/or OX2R G-coupled protein receptors (GPCRs) couple through the Gaq signaling pathway, which ultimately promotes calcium mobilization via inositol triphosphate (IP3) production. The half-life of IP-3 is relatively short, being rapidly metabolized to inositol monophosphate (IP-1), which can be readily detected using a commercially available assay kit (IP-One; Cisbio; cat #621PAPEC) coupled with a cell line expressing the target receptor(s) of interest. The utility of the compounds in accordance with the present invention as orexin receptor OX1R and/or OX2R agonists may be determined utilizing this assay.
In a typical experiment, the OX1 and OX2 receptor agonist activity is determined in accordance with the following general experimental method. Chinese hamster ovary (CHO) cells expressing human OX1R and/or the human OX2R were grown in Iscove's modified DMEM containing glutaMAX™, 1% G418, 100 U/mL penicillin, 100 μg/mL streptomycin and 10% heat-inactivated qualified fetal bovine serum (FBS). The OX2R cells were seeded at 10,000 cells/well/50 μL and the OX1R cells were seeded at 20,000 cells/well/50 μL into 384-well white tissue culture plates (Greiner; cat #781080). All cell/media reagents were from GIBCO-Invitrogen Corp. The seeded cell plate(s) were incubated at 37° C. with 5% CO2 and 85% humidity for 20-24 hours. On the day of the assay, assay-ready compound plates were prepared using an acoustic liquid handler (ECHO; Labcyte), which dispensed sufficient volume of test compound stock (10 mM in DMSO) or 100% DMSO to prepare 10 point, ½-log dilutions in a final volume of 202.5 nL/well in all test wells of a 384-well diamond plate (Labcyte). Following completion of assay-ready plates, importantly, the next three steps were performed with minimal delay: 1) 20 μl of 1× stimulation buffer was added to the compound plate using a Multidrop Combi (small cassette, Thermo Fisher Scientific cat #24073290); 2) culture medium was removed from the cell plate using the Bluewasher plate washer (gentle spin; BlueCatBio); 3) 14 μl of compound/stimulation buffer mixture was added to the cell plate using a Bravo liquid handler (Agilent) prior to incubating cell plates at 37° C. with 5% CO2 and 85% humidity for 1 or 2 hours (OX1R and OX2R, respectively). During this incubation, IP-one detection reagents were prepared (38:1:1 lysis buffer:D2:AB-cryptate reagents). Six μL of mixed detection reagents were added to the cell plate using a Multidrop Combi (small cassette, Thermo Fisher Scientific cat #24073290) and incubated 60 minutes at room temperature in the dark. Fluorescence signal was detected using an Envision plate reader (Perkin Elmer) [LANCE/DELFIA Dual Enh (Em: APC 665; Ex: Cy5 620)].
For each compound, data were fit to a four parameter logistic fit (ActivityBase software) and the EC50 was reported as the inflection point of the resulting curve. Percent effect for each test compound was determined as the percentage of sample raw value/mean max effect, where the mean max effect was derived from the mean raw value of 32 control wells per assay plate (using Orexin A (cat #003-30) at 1 μM for human OX1R and a reference compound at 1 uM with 100% activity previously established by comparison to Orexin A for human OX2R). The intrinsic orexin receptor agonist activity of a compound which may be used in the present invention may be determined by these assays.

Where [1] appears, read: CHO cells expressing human OX2R, IP-One assay, 2 hours incubation, four parameter logistic fit, read-out: OX2R Potency, EC50.

SMILES strings stand for the structures. Where two headings read alike, the source gives them in different places.

As for `CCNC(=O)N1CC[C@H](NS(C)(=O)=O)[C@@H]1CO[C@H]1CC[C@@H](c2ccccc2)CC1` (relative stereo) [Example 1, (CIS)-N-ethyl-3-(methylsulfonamido)-2-((((CIS)-4-phenylcyclohexyl)oxy)methyl)pyrrolidine-1-carboxamide], the response was half-maximal at 12 nM (EC50) and the “Emax, % of reference agonist” value was 99.6%.

Consider `COC(=O)N1CC[C@H](NS(C)(=O)=O)[C@@H]1CO[C@H]1CC[C@@H](c2ccccc2)CC1` (relative stereo) [Example 2, methyl (CIS)-3-(methylsulfonamido)-2-((((CIS)-4-phenylcyclohexyl)oxy)-methyl)pyrrolidine-1-carboxylate], for which the “Emax, % of reference agonist” value was 96.4%. Besides, under setting [1], the EC50 was found to be 328 nM.

As to `CC(=O)N1CC[C@H](NS(C)(=O)=O)[C@@H]1CO[C@H]1CC[C@@H](c2ccccc2)CC1` (relative stereo) [Example 3, N-((CIS)-1-acetyl-2-((((CIS)-4-phenylcyclohexyl)oxy)methyl)pyrrolidin-3-yl)methanesulfonamide], the “Emax, % of reference agonist” value was 101.3%. Moreover, the EC50 under setting [1] was found to be 272 nM.

As to `CCOC(=O)N1CC[C@@H](NS(C)(=O)=O)[C@H]1CO[C@H]1CC[C@@H](c2ccccc2)CC1` (relative stereo) [Example 4, ethyl (CIS)-3-(methylsulfonamido)-2-((((CIS)-4-phenylcyclohexyl)oxy)methyl) pyrrolidine-1-carboxylate], the “Emax, % of reference agonist” value worked out at 98.9%. Besides, the EC50 under setting [1] was 252 nM.

Turning to `CC(C)OC(=O)N1CC[C@@H](NS(C)(=O)=O)[C@H]1CO[C@H]1CC[C@@H](c2ccccc2)CC1` (relative stereo) [Example 5, isopropyl (CIS)-3-(methylsulfonamido)-2-((((CIS)-4-phenylcyclohexyl)oxy)methyl) pyrrolidine-1-carboxylate], the “Emax, % of reference agonist” value is recorded as 92.8%. Besides, under setting [1], the EC50 turned out to be 2630 nM.

With `CS(=O)(=O)N[C@@H]1CCN(C(=O)OCCF)[C@@H]1CO[C@H]1CC[C@@H](c2ccccc2)CC1` (relative stereo) [Example 6, 2-fluoroethyl (CIS)-3-(methylsulfonamido)-2-((((CIS)-4-phenylcyclohexyl)oxy)methyl) pyrrolidine-1-carboxylate], the “Emax, % of reference agonist” value is on record as 98.4%. Further, under setting [1], the concentration giving a half-maximal response (EC50) came to 216 nM.

For `CC(=O)OCC(=O)N1CC[C@H](NS(C)(=O)=O)[C@@H]1CO[C@H]1CC[C@@H](c2ccccc2)CC1` (relative stereo) [Example 7, 2-((CIS)-3-(methylsulfonamido)-2-((((CIS)-4-phenylcyclohexyl)oxy)methyl)pyrrolidin-1-yl)-2-oxoethyl acetate], the “Emax, % of reference agonist” value is given as 98.8%. Moreover, under setting [1], the EC50 worked out at 361 nM.

In the case of `CS(=O)(=O)N[C@H]1CCN(C(=O)C2CC2)[C@H]1CO[C@H]1CC[C@@H](c2ccccc2)CC1` (relative stereo) [Example 8, N-((CIS)-1-(cyclopropanecarbonyl)-2-((((CIS)-4-phenylcyclohexyl)oxy)methyl)pyrrolidin-3-yl) methanesulfonamide], the “Emax, % of reference agonist” value was 101.6%. In addition, the EC50 under setting [1] was 77.9 nM.

As for `CC(C)NC(=O)N1CC[C@@H](NS(C)(=O)=O)[C@H]1CO[C@H]1CC[C@@H](c2ccccc2)CC1` (relative stereo) [Example 9, (CIS)-N-isopropyl-3-(methylsulfonamido)-2-((((CIS)-4-phenylcyclohexyl)oxy)methyl) pyrrolidine-1-carboxamide], the “Emax, % of reference agonist” value is listed as 99.2%. For the same molecule, the EC50 under setting [1] was 36.4 nM.

For `CS(=O)(=O)N[C@H]1CCN(C(=O)NCC(F)(F)F)[C@H]1CO[C@H]1CC[C@@H](c2ccccc2)CC1` (relative stereo) [Example 10, (CIS)-3-(methylsulfonamido)-2-((((CIS)-4-phenylcyclohexyl)oxy)methyl)-N-(2,2,2-trifluoroethyl)pyrrolidine-1-carboxamide], the “Emax, % of reference agonist” value turned out to be 103.7%. Moreover, the EC50 under setting [1] is 3.65 nM.

For `CCS(=O)(=O)N[C@H]1CCN(C(=O)OC)[C@H]1CO[C@H]1CC[C@@H](c2ccccc2)CC1` (relative stereo) [Example 13, methyl (CIS)-3-(ethylsulfonamido)-2-((((CIS)-4-phenylcyclohexyl)oxy)methyl)pyrrolidine-1-carboxylate], the “Emax, % of reference agonist” value stood at 99.9%. Under setting [1], the EC50 came out at 136 nM.

For the molecule `COC(=O)N1CC[C@@H](NS(=O)(=O)C(C)C)[C@H]1CO[C@H]1CC[C@@H](c2ccccc2)CC1` (relative stereo) [Example 14, methyl (CIS)-3-((1-methylethyl)sulfonamido)-2-((((CIS)-4-phenylcyclohexyl)oxy)methyl) pyrrolidine-1-carboxylate], the “Emax, % of reference agonist” value is given as 101.3%. For the same molecule, the EC50 under setting [1] stood at 372 nM.

For `COC(=O)N1CC[C@@H](NS(=O)(=O)C2CC2)[C@H]1CO[C@H]1CC[C@@H](c2ccccc2)CC1` (relative stereo) [Example 15, methyl (CIS)-3-(cyclopropanesulfonamido)-2-((((CIS)-4-phenylcyclohexyl)oxy)methyl) pyrrolidine-1-carboxylate], the “Emax, % of reference agonist” value was 99.8%. The concentration giving a half-maximal response (EC50) under setting [1] turned out to be 299 nM.

`COC(=O)N1CC[C@@H](NS(=O)(=O)CF)[C@H]1CO[C@H]1CC[C@@H](c2ccccc2)CC1` (relative stereo) [Example 16, methyl (CIS)-3-((fluoromethyl)sulfonamido)-2-((((CIS)-4-phenylcyclohexyl)oxy)methyl) pyrrolidine-1-carboxylate]: the “Emax, % of reference agonist” value is 100.7%. Further, the EC50 under setting [1] came to 177 nM.

Turning to `COC(=O)N1CC[C@H](NS(=O)(=O)c2ccccc2)[C@@H]1CO[C@H]1CC[C@@H](c2ccccc2)CC1` (relative stereo) [Example 17, methyl (CIS)-2-((((CIS)-4-phenylcyclohexyl)oxy)methyl)-3-(phenylsulfonamido)pyrrolidine-1-carboxylate], the “Emax, % of reference agonist” value worked out at 82.3%. The concentration for a half-maximal effect (EC50) under setting [1] amounted to 3700 nM.

As to `CNS(=O)(=O)N[C@@H]1CCN(C(=O)OC)[C@@H]1CO[C@H]1CC[C@@H](c2ccccc2)CC1` (relative stereo) [Example 18, methyl (CIS)-3-((N-methylsulfamoyl)amino)-2-((((CIS)-4-phenylcyclohexyl)oxy)methyl) pyrrolidine-1-carboxylate], the “Emax, % of reference agonist” value is 98.5%. Further, the EC50 under setting [1] was determined as 66.5 nM.

As for `COC(=O)N1CC[C@@H](NS(=O)(=O)N(C)C)[C@H]1CO[C@H]1CC[C@@H](c2ccccc2)CC1` (relative stereo) [Example 19, methyl (CIS)-3-((N,N-dimethylsulfamoyl)amino)-2-((((CIS)-4-phenylcyclohexyl)oxy)methyl) pyrrolidine-1-carboxylate], the “Emax, % of reference agonist” value is recorded as 98.8%. The EC50 under setting [1] was determined as 39.4 nM.

The term EC50 denotes the concentration that produces a half-maximal response.
